The record followed here is patent US20220387602A1, “BIFUNCTIONAL DEGRADERS AND THEIR METHODS OF USE” (NOVARTIS AG, priority 2019, published 2022).

Assay [1] addresses T1, BTK (Homo sapiens, UniProt Q06187).
T1 construct: the BTK open reading frame (ORF) was first shuttled from a pcDNA-DEST40-BTK vector; expressed in transfected cells; host or cells: HEK293A (Invitrogen R70507), lentiviral transduction, blasticidin selection
In words: BTK-GFP protein abundance flow cytometry assay in HEK293A. It is filed as cell-based. The conditions noted are these: for BTK degradation Amax: % protein remaining at the concentration at which maximum degradation is seen, HEK293A; for BTK degradation Amax / DC50: 24 h; for DC50: concentration at which 50% maximal degradation was observed, HEK293A BTK-GFP sensor cells. The procedure: Degradation of BTK, CSK, ABL2, EPHA4 and YES1 was measured in HEK293A cells (Invitrogen R70507) expressing either BTK-GFP and RFP, CSK-GFP and mCherry, GFP-ABL2 and mCherry, EPHA4-GFP and mCherry, or YES1-GFP and mCherry from a stably integrated bicistronic BTK-GFP-iresRFP, CSK-GFP-CHYSEL-mCherry, GFP-ABL2-CHYSEL-mCherry, EPHA4-GFP-CHYSEL-mCherry, or YES1-GFP-CHYSEL-mCherry construct, respectively. Reduction of the GFP signal measured by flow cytometry served as readout for BTK, CSK, ABL2, EPHA4 and YES1 degradation after degrader treatment.
The mix was incubated for another 20 min at RT and then added on 1 mL of a freshly prepared suspension of HEK293FT cells in a well of a 6-well plate (concentration 1.2×10^6 cells/mL). 1 day after transfection, the medium was replaced with 1.5 mL of complete growth medium (DMEM high Glucose+10% FCS+1% L-Glutamine+1% NEAA+1% NaPyr.). 48 h post transfection supernatant containing viral transducing particles was collected and frozen at −80° C.
Infection was performed with 90 μL of collected supernatant containing viral transducing particles in 1 mL medium including 8 µg/mL polybrene. 24 h post infection, stably transfected cells were selected with blasticidin at a concentration of 8 μg/mL referred to as stable HEK293A sensor cells.
Stable HEK293A sensor cells were maintained in complete growth medium (DMEM high Glucose+10% FCS+1% L-Glutamine+1% NEAA+1% NaPyr.) with passaging performed twice per week. On Day 0, stable HEK293A sensor cells were seeded at 10,000 cells/well in a 96-well microtiter plate in 260 μL complete medium. On Day 1, cells were treated in duplicate with 10-point 1:3 dilution series of compound using the HP D300 Digital Dispenser (Tecan). DMSO concentrations were normalized across the plate to 0.1%. On Day 2, after 24 h of incubation at 37° C., treatment media was discarded, cells rinsed with 100 μL/well PBS and then detached using 40 μL trypsin/well for 5 min. Trypsin was neutralized with 100 μL/well PBS+20% FCS). Flow cytometry was performed on the samples using the BD FACS CANTO II (Becton Dickinson). Cell identification was then performed using forward (FSC) vs. side scatter (SSC) plots. Single cell discrimination is performed using SSC-Width (SSC-W) vs. SSC-Height (SSC-H) plots. Median GFP values for 5,000 single cells are used to determine BTK levels. Median GFP values from HEK293 Å-iresRFP are used as a background signal and thus defining 0% BTK signal. Median GFP values from DMSO treated HEK293 Å-BTK-GFP-iresRFP are used to define 100% BTK signal for subsequent DC50 curves (concentration at 50% BTK degradation). GFP and RFP are read in the channels called FITC and PE, respectively.
Concentration response curves plotting relative reduction of the GFP signal (measured by flow cytometry) versus 10 compound concentrations (starting concentration 10 μM, 3 fold dilution steps) of the compounds allowed generation of DC50 values. Protein abundance measured for the second generation vectors having a chysel was done in close analogy to the above described method for measuring BTK abundance.
Table 5 columns are defined as follows: DC50 refers to the concentration at which 50% maximal degradation was observed; deg Amax is the extent of degradation and the value refers to the % protein remaining at the concentration at which maximum degradation is seen.
Background: A flow cytometer gives signals particle by particle.

In assay [2] the target is CRBN (Homo sapiens, UniProt Q96SW2). In words: CRBN displacement assay Format 1 (fluorescence polarization, BodipyFL-lenalidomide probe Compound HH). The assay is classed as binding. The protocol: Compounds were tested in the following biochemical and cellular assays.
CRBN, sequence (Q96SW2 whole entry): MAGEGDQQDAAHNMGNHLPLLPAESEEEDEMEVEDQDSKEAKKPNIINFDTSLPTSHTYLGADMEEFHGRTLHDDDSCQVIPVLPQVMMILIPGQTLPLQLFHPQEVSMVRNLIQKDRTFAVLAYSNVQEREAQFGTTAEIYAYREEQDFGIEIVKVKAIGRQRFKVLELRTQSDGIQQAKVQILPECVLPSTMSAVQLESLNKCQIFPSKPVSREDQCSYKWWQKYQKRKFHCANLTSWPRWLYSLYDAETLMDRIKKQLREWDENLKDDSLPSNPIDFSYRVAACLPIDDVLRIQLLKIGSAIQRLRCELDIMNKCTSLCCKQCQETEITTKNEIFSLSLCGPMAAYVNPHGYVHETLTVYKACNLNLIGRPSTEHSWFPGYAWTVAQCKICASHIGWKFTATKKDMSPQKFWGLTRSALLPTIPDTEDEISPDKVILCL
BodipyFL conjugated lenalidomide compound HH was used as a fluorescent probe. […] Protein and substrate were diluted in assay buffer.
All protein and probe containing solutions were handled in ‘Maxymum Recovery’ tubes (Axygen Scientific Inc., Union City, USA). […] For the plate measurements a PHERAstar reader (BMG Labtech, Offenburg, Germany) was used. The instrument was equipped with a specific optics module containing filters and dichoic mirrors for measuring the fluorescence polarization-type assay. With this module, the fluorescence of the Bodipy FL-based probe was excited at 485 nm and the emissions of the product were measured at 520 nm. The fluorescence in each well was excited by 10 flashes per measurement.
For the determination of AC50 values, the assays were performed at room temperature in 384-well plates with a total assay volume of 10.1 μL per well. The test compound was dissolved in 90% (v/v) DMSO/water. For the assays, 100 nL of the 90% (v/v) DMSO/water solution or compound solution were added per well, followed by the addition of 5 μL protein solution (protein in 1× assay buffer).
The final assay concentration of the protein was nominally 100 nM. After 45 minutes of pre-incubation at room temperature, the competition for binding was started by the addition of 5 μL probe solution (probe dissolved in assay buffer). The final concentration of the probes in the assays was 5 nM. After the addition of the probe solution, the final DMSO concentration in the assay was 0.9% (v/v). The effect of the probe on the pre-established compound-protein complex equilibrium was determined after 45 minutes (t=45 min). The AC50 value was calculated from the plot of percentage of protein saturation versus the test compound concentration by a logistics fit according to: y=A^2+(A^1−A^2)/(1+(x/AC50)^p), where y is the %-saturation value at the test compound concentration, x. A^1 is the lowest saturation value, i.e., 0%, and A^2 the maximum saturation value, i.e. 100%. The exponent, p, is the Hill coefficient.
In general terms: Polarisation of emitted light reports the rotation of a fluorescent probe.

SMILES strings stand for the structures. “Also recorded” adds a separate entry of the source.

T1 sequence (Q06187 whole entry): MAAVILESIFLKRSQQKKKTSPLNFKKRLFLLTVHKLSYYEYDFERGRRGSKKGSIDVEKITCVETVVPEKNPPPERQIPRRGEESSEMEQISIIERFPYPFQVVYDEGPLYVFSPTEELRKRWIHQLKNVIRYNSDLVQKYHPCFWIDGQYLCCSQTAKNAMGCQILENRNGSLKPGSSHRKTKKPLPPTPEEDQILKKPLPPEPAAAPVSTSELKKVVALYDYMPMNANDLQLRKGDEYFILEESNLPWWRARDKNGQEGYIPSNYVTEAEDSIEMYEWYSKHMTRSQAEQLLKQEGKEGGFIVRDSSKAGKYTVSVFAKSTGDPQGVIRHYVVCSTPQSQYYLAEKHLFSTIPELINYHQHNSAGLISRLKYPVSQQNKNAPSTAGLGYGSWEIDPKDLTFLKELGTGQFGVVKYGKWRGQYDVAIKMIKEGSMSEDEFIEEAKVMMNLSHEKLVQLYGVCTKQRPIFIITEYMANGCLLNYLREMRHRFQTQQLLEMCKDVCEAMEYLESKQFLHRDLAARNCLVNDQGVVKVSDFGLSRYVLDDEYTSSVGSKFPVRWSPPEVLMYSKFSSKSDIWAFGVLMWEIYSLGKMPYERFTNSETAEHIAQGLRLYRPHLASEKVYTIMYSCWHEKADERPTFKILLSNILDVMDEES

As to `Cc1c(NC(=O)c2ccc(C(C)(C)O)cc2F)cc(F)cc1-c1ncnc2[nH]c(-c3ccc(CN4CCC(OC5CCN(CCn6cccc(CN7CCC(=O)NC7=O)c6=O)CC5)CC4)cc3)cc12` [Compound 33, N-(3-(6-(4-((4-((1-(2-(3-((2,4-dioxotetrahydropyrimidin-1(2H)-yl)methyl)-2-oxopyridin-1(2H)-yl)ethyl)piperidin-4-yl)oxy)piperidin-1-yl)methyl)phenyl)-7H-pyrrolo[2,3-d]pyrimidin-4-yl)-5-fluoro-2-methylphenyl)-2-fluoro-4-(2-hydroxypropan-2-yl)benzamide], in assay [1], the “BTK degradation Amax” value came out at 6.1% and the half-maximal degradation concentration (DC50) worked out at 2.1 nM. Further, the activity in assay [2] was half-maximal at 915 nM (AC50).

As for `Cc1c(NC(=O)N2CC(O)(CC(C)(C)C)C2)cc(F)cc1-c1ncnc2[nH]c(-c3ccc(OCCCN4CCN(C(=O)COc5ccc(Cl)c(N6CCC(=O)NC6=O)c5)CC4)nc3)cc12` [Compound 13, N-(3-(6-(6-(3-(4-(2-(4-chloro-3-(2,4-dioxotetrahydropyrimidin-1(2H)-yl)phenoxy)acetyl)piperazin-1-yl)propoxy)pyridin-3-yl)-7H-pyrrolo[2,3-d]pyrimidin-4-yl)-5-fluoro-2-methylphenyl)-3-hydroxy-3-neopentylazetidine-1-carboxamide], in assay [1], the “BTK degradation Amax” value was determined as 4.6% and it took 3.7 nM to reach half-maximal degradation (DC50). Further, half-maximal activity in assay [2] (AC50) was put at 575 nM.

With `Cc1c(NC(=O)c2ccc(C(C)(C)O)cc2F)cc(F)cc1-c1ncnc2[nH]c(-c3ccc(CN4CCN(CCNC(=O)COc5ccc(N6CCC(=O)NC6=O)cc5)CC4)cc3)cc12` [Compound 26, N-(3-(6-(4-((4-(2-(2-(4-(2,4-Dioxotetrahydropyrimidin-1(2H)-yl)phenoxy)acetamido)ethyl)piperazin-1-yl)methyl)phenyl)-7H-pyrrolo[2,3-d]pyrimidin-4-yl)-5-fluoro-2-methylphenyl)-2-fluoro-4-(2-hydroxypropan-2-yl)benzamide], in assay [1], the “BTK degradation Amax” value turned out to be 10.6% and the DC50 was determined as 11.2 nM. In assay [2], this compound showed a concentration at half-maximal activity (AC50) of 3920 nM.

Consider `Cc1c(NC(=O)c2ccc(C(C)(C)O)cc2F)cc(F)cc1-c1ncnc2[nH]c(-c3ccc(CN(C)CCCNC(=O)COc4cccc(N5CCC(=O)NC5=O)c4)cc3)cc12` [Compound 12, N-(3-(6-(4-(((3-(2-(3-(2,4-dioxotetrahydropyrimidin-1(2H)-yl)phenoxy)acetamido)propyl)(methyl)amino)methyl)phenyl)-7H-pyrrolo[2,3-d]pyrimidin-4-yl)-5-fluoro-2-methylphenyl)-2-fluoro-4-(2-hydroxypropan-2-yl)benzamide], for which, in assay [1], the “BTK degradation Amax” value is reported as 2.3% and half-maximal degradation (DC50) was put at 10.7 nM. In assay [2], this compound registered a half-maximal activity concentration (AC50) of 7160 nM.

Regarding `Cc1c(NC(=O)c2ccc(C(C)(C)O)cc2F)cc(F)cc1-c1ncnc2[nH]c(-c3ccc(CN4CCOC(CN(C)CCOc5cccc(N6CCC(=O)NC6=O)c5)C4)cc3)cc12` (stereo not shown) [Compound 15, N-(3-(6-(4-((2-(((2-(3-(2,4-Dioxotetrahydropyrimidin-1(2H)-yl)phenoxy)ethyl)(methyl)amino)methyl)morpholino)methyl)phenyl)-7H-pyrrolo[2,3-d]pyrimidin-4-yl)-5-fluoro-2-methylphenyl)-2-fluoro-4-(2-hydroxypropan-2-yl)benzamide], in assay [1], the “BTK degradation Amax” value is listed as 28.8% and it took 21.7 nM to reach half-maximal degradation (DC50). The AC50 in assay [2] was determined as 4110 nM.

With `COc1cc(C(=O)NCCCCN2CCN(Cc3ccc(-c4cc5c(-c6cc(F)cc(NC(=O)c7ccc(C(C)(C)O)cc7F)c6C)ncnc5[nH]4)cc3)CC2)ccc1N1CCC(=O)NC1=O` [Compound 25, N-(3-(6-(4-((4-(4-(4-(2,4-dioxotetrahydropyrimidin-1(2H)-yl)-3-methoxybenzamido)butyl)piperazin-1-yl)methyl)phenyl)-7H-pyrrolo[2,3-d]pyrimidin-4-yl)-5-fluoro-2-methylphenyl)-2-fluoro-4-(2-hydroxypropan-2-yl)benzamide], in assay [1], the “BTK degradation Amax” value came to 51.1% and the DC50 is more than 3330 nM. Besides, half-maximal activity in assay [2] (AC50) was put at 4470 nM.

Take `Cc1c(NC(=O)c2ccc(C(C)(C)O)cc2F)cc(F)cc1-c1ncnc2[nH]c(C3=CCN(C(=O)CCCCN4CCC(Oc5ccc(N6CCC(=O)NC6=O)cc5)CC4)CC3)cc12` [Compound 27, N-(3-(6-(1-(5-(4-(4-(2,4-Dioxotetrahydropyrimidin-1(2H)-yl)phenoxy)piperidin-1-yl)pentanoyl)-1,2,3,6-tetrahydropyridin-4-yl)-7H-pyrrolo[2,3-d]pyrimidin-4-yl)-5-fluoro-2-methylphenyl)-2-fluoro-4-(2-hydroxypropan-2-yl)benzamide]: in assay [1], the “BTK degradation Amax” value was 21.7% and the DC50 was determined as 22 nM. Further, half-maximal activity in assay [2] (AC50) was put at 1940 nM.

In the case of `COc1ccc(C(=O)N2CCOC3(CCN(Cc4ccc(-c5cc6c(-c7cc(F)cc(NC(=O)c8ccc(C(C)(C)O)cc8F)c7C)ncnc6[nH]5)cc4)CC3)C2)cc1N1CCC(=O)NC1=O` [Compound 01, N-(3-(6-(4-((4-(3-(2,4-dioxotetrahydropyrimidin-1(2H)-yl)-4-methoxybenzoyl)-1-oxa-4,9-diazaspiro[5.5]undecan-9-yl)methyl)phenyl)-7H-pyrrolo[2,3-d]pyrimidin-4-yl)-5-fluoro-2-methylphenyl)-2-fluoro-4-(2-hydroxypropan-2-yl)benzamide], in assay [1], the “BTK degradation Amax” value came out at 98% and the DC50 was more than 3330 nM. Also, the “BTK degradation” value in assay [1] (extent of BTK degradation as stated in the text) was “no significant BTK degradation was observed; also recorded: no degradation of BTK was observed”. In assay [2], this compound came in with an AC50 of 1590 nM.

On to `Cc1c(NC(=O)c2ccc(C(C)(C)O)cc2F)cc(F)cc1-c1ncnc2[nH]c(-c3ccc(CN(C)CCCCCCOc4cccc(N5CCC(=O)NC5=O)c4)cc3)cc12` [Compound 16, N-(3-(6-(4-(((6-(3-(2,4-Dioxotetrahydropyrimidin-1(2H)-yl)phenoxy)hexyl)(methyl)amino)methyl)phenyl)-7H-pyrrolo[2,3-d]pyrimidin-4-yl)-5-fluoro-2-methylphenyl)-2-fluoro-4-(2-hydroxypropan-2-yl)benzamide], for which, in assay [1], the “BTK degradation Amax” value was found to be 15.9% and half-maximal degradation (DC50) was put at 22.6 nM. The compound further yielded an AC50 in assay [2] of 916 nM.

What is called DC50 is the concentration at which degradation of the target reaches its halfway point. A low value points to a more potent degrader. What is called AC50 is the concentration giving half of the maximal activity seen.
